Measurements published in publication PMC7520468, “Salvia ceratophylla L. from South of Jordan: new insights on chemical composition and biological activities” (Natural Products and Bioprospecting, 2020).
In brackets after ≈: the same amount, converted by molar mass.

Key:
[1] = system: T. brucei brucei blood stream forms; design: method as in PMID 16557466; settings: cited from earlier work
[2] = system: L. donovani promastigotes; assay: Leishmania donovani promastigote assay (Alamar Blue); format: cell-based; settings: 72 h, 26 °C, tested concentrations (µg/mL) 20–0.8 extracts, 10–0.4 pure compounds and pentamidine, 2.0–0.08 amphotericin B, NA = not active
Experimental: (§1) EO and extracts (A-D) at a stock concentration of 20 mg/mL were dilute to 4 mg/mL with DMSO. The obtained solutions (4 mg/mL) were four-fold diluted with incomplete RPMI medium to 1 mg/mL. Pure compounds at a stock concentration of 2 mg/mL in DMSO were diluted four-fold with incomplete RPMI medium to 0.5 mg/mL.
(§2) The extracts and pure compounds (highest concentrations 20 µg/mL for extracts and 10 µg/mL for pure compounds) were subject to different tests, namely Leishmania donovani promastigote assay, L. donovani axenic amastigote assay, L. donovani THP1 macrophage amastigote assay, Trypanosoma brucei trypamastigotes assay and THP1 toxicity assay. Alamar Blue assay was perform as previously described by other authors.
(§3) These assays have been adapted to 384-well micro-plate format. A 3–4 days old culture of Leishmania donovani promastigotes harvested in the exponential growth phase was diluted with RPMI medium to 1 × 10^6 cells/mL for promastigote assays. A 3–4 days old culture of Leishmania donovani axenic amastigotes was diluted with RPMI medium to 2 × 10^6 cells/mL for axenic amastigote assays. A 2 days old culture of Trypanosoma brucei harvested in the exponential phase was diluted with Iscove's Modified Dulbecco's Medium (IMDM) to 5 × 10^3 cells/mL for the antitrypanosomal assay.
(§4) Samples were added to the L. donovani promastigotes, L. donovani axenic amastigotes or T. brucei trypamastigotes cultures. The extracts were initially test at single concentrations of […] for primary screening. The active extracts and pure compounds were test at three or six concentrations ranging from 10 to 0.0032 µg/mL. The plates were incubated at 26 °C for 72 h (37 °C for axenic amastigotes and T. brucei trypamastigotes) and growth of cultured parasites was determined by the Alamar Blue assay [32 33].

[3] = system: L. donovani axenic amastigotes; assay: L. donovani axenic amastigote assay (Alamar Blue); format: cell-based; settings: Leishmania donovani; first Amastigote column; 72 h, 37 °C; tested concentrations (µg/mL) 20–0.8 extracts, 10–0.4 pure compounds and pentamidine, 2.0–0.08 amphotericin B; NA = not active
Experimental: as §1, §2
These assays have been adapted to 384-well micro-plate format. A 3–4 days old culture of Leishmania donovani promastigotes harvested in the exponential growth phase was diluted with RPMI medium to 1 × 10^6 cells/mL for promastigote assays. […]
Samples were added to the L. donovani promastigotes, L. donovani axenic amastigotes or T. brucei trypamastigotes cultures. […] The plates were incubated at 26 °C for 72 h (37 °C for axenic amastigotes and T. brucei trypamastigotes) and growth of cultured parasites was determined by the Alamar Blue assay [32 33].

[4] = system: NF-κB; assay: Inhibition of NF-κB activity, luciferase reporter in SW 1353 cells; format: cell-based; settings: Homo sapiens, SW1353; SW 1353, PMA 70 ng/mL, 8 h; NA = not active at tested concentration
Experimental: The inhibition activity of tested samples against NF-κB was evaluate as described. The SW 1353 human chondrosarcoma cell line was culture in a mixture of Dulbecco's Modified Eagle's Medium (DMEM) and Ham's F-12 Nutrient (DMEM/F12) supplemented with 10% FBS, 100 U/Ml penicillin and 100 µg/mL streptomycin. Cultured cells were washed in antibiotic and FBS-free DMEM/F12 medium and then re-suspended in FBS-free DMEM/F12 medium containing 2.5% FBS. NF-κB luciferase plasmid construct was added to the cell suspension in a concentration of 50 µg/mL and incubated for 5 min at 25 °C. The cells were transfected by electroporation at 160 V and one 70 ms pulse using BTX disposable cuvettes (model 640 in a BTX Electro Square Porator T 820—BTX I, San Diego, CA, USA), Transfected cells were plate in 96-well plates at a density of 1.25 × 10^5cells per well in 200 µL of DMEM/F12 containing 10% FBS and antibiotics. After incubation for 24 h, the cells were treated with test samples for 30 min and then induced with PMA (70 ng/mL) for 8 h. The inhibition of NF-κB activity by EO, other extracts, and pure compounds was calculated in comparison to vehicle control. The IC50 values were obtain from the dose curves. Parthenolide was use as positive control.

[5] = system: human HepG2 hepatoma cells; assay: Inhibition of cellular oxidative stress assay (ABAP, DCFH-DA); format: cell-based
Experimental: The cellular antioxidant activity of S. ceratophylla EO and other extracts was measured in human HepG2 hepatoma cells This assay determines the ability of test samples to prevent intracellular generation of peroxyl radicals in response to 2,2- azobis (2-amidinopropane) dihydrochloride (ABAP, Sigma-Aldrich, St Louis, MO, USA).
HepG2 cells were culture in Dulbecco's Modified Eagle Medium (DMEM) supplemented with 10% fetal bovine serum (FBS), 50 units/mL penicillin and 50 µg/mL streptomycin. Cells were seed in 96-well plates (60,000 cells/well) and incubated for 24 h. The tested samples were diluted in serum free medium containing 25 µM 2^′,7′, dichoroflouresceine diacetate (DCFH-DA, Invitrogen, Carlsbad, CA, USA). The cells were wash with PBS and treated with test samples during 1 h. The medium containing tested samples was removed, ABAP (600 µM) was added and the plate was immediately placed on a Spectra Max plate reader for kinetic reading every 5 min during 1 h (37 °C, emission at 538 nm and excitation at 485 nm). Quercetin (Sigma-Aldrich) was use as positive control. To calculate the percentage of decrease in oxidative stress, the Area Under the Curve (AUC) of fluorescence versus time was used. Decrease in oxidative stress%=AUC control^100-[AUC tested sample×100]

[6] = system: transcription factor Sp-1; assay: Sp-1 inhibition; format: cell-based; settings: NA = not active at tested concentration
[7] = system: skin malignant melanoma (SK-MEL); assay: Cytotoxic activity, Neutral Red assay, SK-MEL; format: cell-based; settings: Homo sapiens; 48 h; NA = not active at 10 µg/mL for pure compound, at 100 µg/mL for extracts
Experimental: (§5) All cell lines used in this study were purchase from American Type Culture Collection (ATCC, Rockville, MD). The cytotoxic activity of the EO, extracts isolated from S. ceratophylla and pure compounds was determined in vitro against various human cancer cells: skin malignant melanoma (SK-MEL), human KB carcinoma (KB), breast ductal carcinoma (BT-549), ovarian carcinoma (SK-OV-3), and in two non-cancerous mammalian kidney cell lines (LLC-PK1 and VERO). Cells were seed at a density of 25,000 cells/well and incubated during 24 h. The tested EO, extracts and pure compounds were added separately at studied concentrations and cells were re-incubated during 48 h. After incubation time, the viability of cells was assessed by using Neutral Red Dye as described. DMSO was use as negative control and doxorubicin as positive control.

[8] = Cytotoxic activity, Neutral Red assay, LLC-PK1; format: cell-based; settings: pig, LLC-PK1 kidney epithelial cells (non-cancerous), NA = not active at 10 µg/mL for pure compound, at 100 µg/mL for extracts
Experimental: as §5

[9] = system: human KB carcinoma (KB); assay: Cytotoxic activity, Neutral Red assay, KB; format: cell-based; settings: 48 h, NA = not active at 10 µg/mL for pure compound, at 100 µg/mL for extracts
Experimental: as §5

[10] = Cytotoxic activity, Neutral Red assay, Vero; format: cell-based; settings: African green monkey, Vero kidney fibroblast cells (non-cancerous), NA = not active at 10 µg/mL for pure compound, at 100 µg/mL for extracts
Experimental: as §5

[11] = system: breast ductal carcinoma (BT-549); assay: Cytotoxic activity, Neutral Red assay, BT-549; format: cell-based; settings: Homo sapiens, 48 h, NA = not active at 10 µg/mL for pure compound, at 100 µg/mL for extracts
Experimental: as §5

[12] = system: ovarian carcinoma (SK-OV-3); assay: Cytotoxic activity, Neutral Red assay, SK-OV-3; format: cell-based; settings: Homo sapiens, 48 h, NA = not active at 10 µg/mL for pure compound, at 100 µg/mL for extracts
Experimental: as §5

[13] = system: several cancer cell lines; design: method as in earlier work; settings: up to a concentration of 200 μg/mL; cited from earlier work
[14] = system: L. amazonensis promastigotes; design: method as in PMID 12760864; settings: cited from earlier work
[15] = system: carrageenin-induced hind paw edema; design: method as in PMID 23334570; settings: dose of 25 mg/kg, p = 0.03; cited from earlier work
[16] = system: NO production in mouse macrophage cells (RAW 264.7); assay: Nitric oxide (NO) measurement, LPS-stimulated macrophages, Griess reagent; format: cell-based; settings: RAW264.7, RAW 264.7, LPS 5 µg/mL, 24 h, NA = not active at tested concentration, read-out: NO inhibition IC50
Experimental: The NO inhibition by EO, extracts of S. ceratophylla and pure compounds, was assess by the following methodology. Briefly, mouse macrophage cells (RAW 264.7) were culture in phenol red free RPMI medium with 10% bovine calf serum and 100 U/mL penicillin and 100 µg/mL streptomycin.
Cells were seed in 96-well plates (50,000 cells/well) and incubated during 24 h. The tested samples were dilute in serum free medium, incubated during 30 min, then lipopolysaccharide (LPS, 5 µg/mL) was added and cells were incubated for further 24 h. The level of nitrite in the cell supernatant was measure by using Griess reagent. The inhibition of nitrite production by the tested samples was calculate in comparison to the vehicle control. Parthenolide (Sigma-Aldrich) was use as positive control. IC50 values were obtain from dose curves.

[17] = system: differentiated THP1 cells; assay: THP1 toxicity assay (Alamar Blue); format: cell-based; settings: Homo sapiens, THP-1; 48 h; tested concentrations (µg/mL) 20–0.8 extracts, 10–0.4 pure compounds and pentamidine, 2.0–0.08 amphotericin B; NA = not active
Experimental: Alamar Blue assay was perform as previously described by other authors. […] PMA was added to a final concentration of 25 ng/mL. A PMA treated culture was dispense in experimental culture plates and incubated overnight at 37 °C in a 5% CO2 incubator. The plates with differentiated THP1 cells were wash with serum-free medium. For THP1 toxicity assay, the diluted test samples (extracts or pure compounds) were add over differentiated THP1 cells and plates were incubated during 48 h at 37 °C in a 5% CO2 incubator. Cell growth was determined by the Alamar Blue assay.

[18] = system: T. brucei trypamastigotes; assay: Trypanosoma brucei trypamastigotes assay (Alamar Blue); format: cell-based; settings: 72 h, 37 °C, tested concentrations (µg/mL) 20–0.8 extracts and DFMO, 10–0.4 pure compounds, NA = not active
Experimental: as §1, §2, §3, §4

[19] = compounds of Strychnos spinosa EO

For `C=CC(C)(O)CCC=C(C)CCC=C(C)C` (mixture of isomers) [nerolidol], the “IC50 towards Trypanosoma” value [1, 19] is given as 1.7 µg/mL and the “selectivity index (SI) towards Trypanosoma” value [1, 19] is given as 35.7.
In the case of `C[C@@H]1[C@H](O)[C@@H](C)/C=C/C=C/C=C/C=C/C=C/C=C/C=C/[C@H](O[C@@H]2O[C@H](C)[C@@H](O)[C@H](N)[C@@H]2O)C[C@@H]2O[C@](O)(C[C@@H](O)C[C@@H](O)[C@H](O)CC[C@@H](O)C[C@@H](O)CC(=O)O[C@H]1C)C[C@H](O)[C@H]2C(=O)O` [Amphotericin B], the IC50 [2] is reported as 0.14 µg/mL (≈ 0.152 µM), the IC90 [2] is reported as 0.324 µg/mL (≈ 0.351 µM) and the IC50 [3] is reported as 0.181 µg/mL (≈ 0.196 µM).
For `C=C1CC/C=C(\C)CC[C@@H]2[C@@H]1CC2(C)C` [Caryophyllene, (-)trans-Caryophyllene], the IC50 [4] was 45 µg/mL (≈ 220 µM), the “% decrease in oxidative stress” value ([5]; 250 µg/mL, pure compounds, NA = not active at tested concentration) was 31% and the “% decrease in oxidative stress” value ([5]; 500 µg/mL, pure compounds, NA = not active at tested concentration) was 35%. It also gave an IC50 [6] of 48 µg/mL (≈ 235 µM).
In the case of `COc1cccc2c1C(=O)c1c(O)c3c(c(O)c1C2=O)C[C@@](O)(C(=O)CO)C[C@@H]3O[C@H]1C[C@H](N)[C@H](O)[C@H](C)O1` [Doxorubicin], the IC50 [7] is reported as 0.8 µg/mL (≈ 1.47 µM), the IC50 at 48 h [8] is reported as 1.2 µg/mL (≈ 2.21 µM) and the IC50 [9] is reported as 1.4 µg/mL (≈ 2.58 µM). For the same molecule, the IC50 at 48 h [10] was > 5 µg/mL, the IC50 [11] was 0.85 µg/mL (≈ 1.56 µM) and the IC50 [12] was 2 µg/mL (≈ 3.68 µM).
In the case of `C=CC(C)(O)CCC=C(C)C` (stereo not drawn) [Linalool], the “cytotoxic activity against several cancer cell lines” value [13] is given as “did not exhibit cytotoxic activity”, the “MIC, viability of L. amazonensis promastigotes” value [14] is given as 0.085 ng/mL and the “inhibition of carrageenin-induced hind paw edema” value [15] is given as 55%. For the same molecule, the IC50 [16] was 18 µg/mL (≈ 117 µM) and the “IC50 towards Trypanosoma” value [1, 19] was 2.5 µg/mL (≈ 16.2 µM).
In the case of `C=C1C(=O)O[C@H]2[C@H]1CC/C(C)=C/CC[C@@]1(C)O[C@@H]21` [Parthenolide], the IC50 [4] is reported as 0.33 µg/mL (≈ 1.33 µM) and the IC50 [16] is reported as 0.48 µg/mL (≈ 1.93 µM).
With `N=C(N)c1ccc(OCCCCCOc2ccc(C(=N)N)cc2)cc1` [Pentamidine] the IC50 [2] was 1.02 µg/mL (≈ 3.01 µM), the IC90 [2] was 9.28 µg/mL (≈ 27.3 µM) and the IC90 [17] was 1.74 µg/mL (≈ 5.1 µM). The IC50 [3] was 3.8 µg/mL (≈ 11.2 µM).
In the case of `O=c1c(O)c(-c2ccc(O)c(O)c2)oc2cc(O)cc(O)c12` [Quercetin], the “% decrease in oxidative stress” value ([5]; 25 µM, positive control) is reported as 75%.
With `CC1=CC[C@@H](C(C)(C)O)CC1` [α-Terpineol] the IC50 [4] was 100 µg/mL (≈ 648 µM), the IC50 ([18]; Trypanosoma brucei) was 6.04 µg/mL (≈ 39.2 µM) and the IC90 ([18]; Trypanosoma brucei) was 8.22 µg/mL (≈ 53.3 µM). For the same molecule, the “activity against T. brucei brucei blood stream forms” value [1] was “slightly active”.
In the case of `NCCC[C@](N)(C(=O)O)C(F)F` [α-difluoromethylornithine], the “T. brucei IC50” value [18] is reported as 4.792 µg/mL and the “T. brucei IC90” value [18] is reported as 7.760 µg/mL.
